Read-outs that look alike come from different tables or passages of the source. Where a SMILES comes first, the peptide text is derived from it. [ ]: non-standard residue; d: D form.
Experiments:
D/I Aβ-oligomers = molecular target: T1, D/I Aβ-oligomers (Homo sapiens, UniProt P05067, D694N/E693Q); experiment: QIAD assay, D/I Aβ oligomer elimination; type: biochemical; details: 40 µM D/I Aβ preincubated 15 min, 10 µM D-peptide, 30 min coincubation, density gradient fractions 4-6, RP-HPLC UV 214 nm, N = 2-5
T1 construct: (Gln^22, Asn^23)-Amyloid β-Protein (1-40) (D/I Aβ); purchased Bachem (Bubendorf, Switzerland); host or cells: chemical synthesis
Experimental: According to Brener et al., a QIAD assay was performed in order to evaluate the Aβ(1-42) or D/I Aβ oligomer elimination efficacies of RD2D3 and cRD2D3 [18]. In short, 80 µM lyophilized Aβ(1-42) or 40 µM D/I Aβ was preincubated for 2 h or 15 min, respectively, to enrich Aβ-oligomers. Afterwards, either 20 µM RD2D3 or cRD2D3 for Aβ(1-42) or 10 µM RD2D3 or cRD2D3 for D/I Aβ were added to the preincubated solution and coincubated for additional 30 min. Subsequently, the samples were loaded on the top of a density gradient (5–50% (w/v) iodixanol (OptiPrep, Sigma-Aldrich, Darmstadt, Germany)) followed by an ultracentrifugation step (3 h at 4 °C and 259000× g (Optima TL-100, Beckman Coulter, Brea, CA, USA)). Following the ultracentrifugation, 14 fractions (140 µL each) were harvested by upward displacement. Fraction 15 contains the dissolved pellet in 6 M guanidine hydrochloride solution. Top fractions 1–2 contained Aβ-monomers, fractions 4–6 contained the Aβ-oligomers, which are of special interest, and the bottom fractions 11–14 contained high molecular weight (co-)precipitates or aggregated Aβ. Aβ(1-42) or D/I Aβ concentrations of each fraction were determined via analytical RP-HPLC and UV absorbance detection at 214 nm.

Aβ(1-42) = molecular target: T2, Aβ(1-42) (Homo sapiens, UniProt P05067); experiment: SPR, D-peptide immobilized, Aβ(1-42) monomers as analyte; type: binding; details: D-peptide immobilized on series S CM-5 chip, Aβ(1-42) monomers analyte 0.0045-10 µM, 10 mM HEPES + 50 mM NaCl pH 7.4, 25 °C, steady-state Langmuir 1:1 fit (Fig. 1g), read-out: KD Aβ(1-42), D-peptide as ligand
T2 construct: Synthetic Aβ(1-42) and (Gln^22, Asn^23)-Amyloid β-Protein (1-40) (D/I Aβ) with >95% purity were purchased; purchased Bachem (Bubendorf, Switzerland); host or cells: chemical synthesis
Experimental: The dissociation constant (KD) of RD2D3 and cRD2D3 binding to Aβ(1-42) and D/I Aβ was determined by SPR spectroscopy using a Biacore T200 instrument (Biacore, GE Healthcare, Uppsala, Sweden). Aβ(1-42) or D/I Aβ was used as the ligand, while RD2D3 and cRD2D3 were used as the analyte or vice versa.
By using the compounds (RD2D3 and cRD2D3) as ligands, they were immobilized on two separate channels on a series S CM-5 sensor chip (Cytiva, GE Healthcare, Uppsala, Sweden) by amine coupling. Both flow cells on each channel were activated with a mixture of 50 mM N-hydroxysuccinimide (NHS) and 16.1 mM N-ethyl-N’-(dimethylaminopropyl)carbodiimide (EDC) (XanTec, Düsseldorf, Germany) for 7 min. The peptides were diluted to 50 µg/mL in 10 mM maleic acid pH 6 (AppliChem, Darmstadt, Germany) and injected over flow cell two of each channel to a final signal between 600 and 900 RU. After the peptides were immobilized, the ligand and reference flow cells of each channel were quenched by injecting 1 M ethanolamine pH 8.5 (XanTec, Düsseldorf, Germany) for 7 min. […] Aβ(1-42) or D/I Aβ were diluted in the running buffer to the following concentrations: 10 µM, 3.3 µM, 1.1 µM, 0.37 µM, 0.12 µM, […], 0.014 µM and 0.0045 µM. All samples were injected over the flow cells for 180 s, followed by a dissociation step of 600 s with running buffer. […]

[1] = Body weight in i.p. treatment study; type: in vivo; details: Tg-SwDI mice, mean ± SEM; for Body weight before treatment: 11 months old, before 28 d i.p. osmotic minipump 8 mg/kg daily; for Body weight after treatment: after 28 d i.p. osmotic minipump 8 mg/kg daily
Experimental: Eleven months old Tg-SwDI were treated for 28 d i.p. by use of an osmotic minipump (Alzet osmotic pumps, Modell 1004, Charles River, Wilmington, MS, USA) with a daily dosage of 8 mg/kg peptide (RD2D3 (n = 14) or cRD2D3 (n = 12)) in PBS (pH 7.4) or vehicle (Placebo (n = 13), PBS, pH 7.4). The minipumps and the i.p. application route have been used to achieve continuous application of the study drug. After surgery, mice were monitored daily the following three days and twice each week until the end of the treatment. A loss of body weight and severe conspicuities were defined as exclusion criteria. No mouse was affected by these exclusion criteria. During the last one and a half weeks of treatment, different behavioral tests (nesting behavior, marble burying, open field test and MWM) were conducted with all mice.

[2] = Proteolytic stability in human plasma; type: in vitro ADME
Experimental: (§1) Both compounds have already been extensively studied with respect to their in vivo pharmacokinetic profiles. Here, we performed some additional test to investigate the proteolytic stability of the compounds in simulated gastric (SGF) and intestinal fluid (SIF) and human plasma and human liver microsomes. The experiments were performed as described previously. According to the guidelines of the European Pharmacopoeia 7.0, SGF and SIF were prepared. Plasma was purchased from Biotrend with K3-EDTA as an anticoagulant (Biotrend, Köln, Germany). Human liver microsomes were pooled from different donors and purchased from Sekisui XenoTech (Kansas City, KS, USA). In order to determine whether the compounds RD2D3 and cRD2D3 are stable or would be metabolized, 150 µM of each compound was incubated in triplicate for defined time points slightly shaking at 37 °C in the media described above (SGF and SIF: 4 and 8 h, plasma: 8, 24 and 48 h and microsomes: 8 and 24 h). Incubation was stopped by precipitating the proteins. For this, 3% trichloroacetic acid (w/v) was added to the respective sample under vortexing followed by a centrifugation step (14,000× g at 4 °C for 5 min). For analysis, supernatants containing the compounds were collected. The precipitated media without compound was used as a control and as reference for the quantification served each medium with compound where the reaction was stopped immediately by precipitating the proteins. All samples were analyzed by RP-HPLC as previously described.

[3] = Proteolytic stability in simulated intestinal fluid (SIF); type: in vitro ADME
Experimental: as §1

CC(C)C[C@@H](NC(=O)[C@@H](CCCNC(=N)N)NC(=O)[C@H](NC(=O)[C@@H](CCCNC(=N)N)NC(=O)[C@H]1CCCN1C(=O)[C@@H](CCCNC(=N)N)NC(=O)[C@@H](CCCNC(=N)N)NC(=O)[C@@H](CCCNC(=N)N)NC(=O)[C@@H](CCCNC(=N)N)NC(=O)[C@@H](CCCNC(=N)N)NC(=O)[C@@H](CCCNC(=N)N)NC(=O)[C@@H](CC(N)=O)NC(=O)[C@@H](Cc1c[nH]cn1)NC(=O)[C@H](NC(=O)[C@@H](Cc1c[nH]cn1)NC(=O)[C@@H](CC(C)C)NC(=O)[C@H](NC(=O)[C@H]1CCCN1)[C@H](C)O)[C@H](C)O)[C@H](C)O)C(=O)N[C@H](Cc1c[nH]cn1)C(=O)N[C@@H](C(=O)N[C@H](Cc1c[nH]cn1)C(=O)N[C@H](CCCNC(=N)N)C(=O)N[C@H](CC(N)=O)C(=O)N[C@H](CCCNC(=N)N)C(N)=O)[C@H](C)O [RD2D3] (H-[dP][dT][dL][dH][dT][dH][dN][dR][dR][dR][dR][dR][dR][dP][dR][dT][dR][dL][dH][dT][dH][dR][dN][dR]-NH2)
Elimination of toxic D/I Aβ-oligomers (QIAD) (D/I Aβ-oligomers): 94%
Kd (Aβ(1-42)): 18.4 ± 6.5 µM
Body weight before treatment [1]: 33.2 ± 2.6 g
Body weight after treatment [1]: 34.3 ± 0.6 g
remaining at 8 h, 150 µM ([2]; human, plasma): 84.7%
remaining at 24 h, 150 µM ([2]; human, plasma): 91.9%
remaining at 48 h, 150 µM ([2]; human, plasma): 93.7%
remaining at 4 h, 150 µM ([3]; simulated intestinal fluid): 100%
remaining at 8 h, 150 µM ([3]; simulated intestinal fluid): 93.5%

CC(C)C[C@H]1NC(=O)[C@@H](CCCNC(=N)N)NC(=O)[C@@H]([C@H](C)O)NC(=O)[C@@H](CCCNC(=N)N)NC(=O)[C@H]2CCCN2C(=O)[C@@H](CCCNC(=N)N)NC(=O)[C@@H](CCCNC(=N)N)NC(=O)[C@@H](CCCNC(=N)N)NC(=O)[C@@H](CCCNC(=N)N)NC(=O)[C@@H](CCCNC(=N)N)NC(=O)[C@@H](CCCNC(=N)N)NC(=O)[C@@H](CC(N)=O)NC(=O)[C@@H](Cc2c[nH]cn2)NC(=O)[C@@H]([C@H](C)O)NC(=O)[C@@H](Cc2c[nH]cn2)NC(=O)[C@@H](CC(C)C)NC(=O)[C@@H]([C@H](C)O)NC(=O)[C@H]2CCCN2C(=O)[C@@H](CCCNC(=N)N)NC(=O)[C@@H](CC(N)=O)NC(=O)[C@@H](CCCNC(=N)N)NC(=O)[C@@H](Cc2c[nH]cn2)NC(=O)[C@@H]([C@H](C)O)NC(=O)[C@@H](Cc2c[nH]cn2)NC1=O [cRD2D3] (cyclo([dH][dN][dR][dR][dR][dR][dR][dR][dP][dR][dT][dR][dL][dH][dT][dH][dR][dN][dR][dP][dT][dL][dH][dT]))
Elimination of toxic D/I Aβ-oligomers (QIAD) (D/I Aβ-oligomers): 100%
Kd (Aβ(1-42)): 5.63 ± 2.5 µM
Body weight before treatment [1]: 35.1 ± 1.4 g
Body weight after treatment [1]: 33.2 ± 1.0 g
remaining at 8 h, 150 µM ([2]; human plasma (K3-EDTA), 150 µM, 37 °C, 8 h, TCA precipitation, RP-HPLC, mean of three independent experiments, read-out: Stability in human plasma, 8 h): 91.8%
remaining at 24 h, 150 µM ([2]; human plasma (K3-EDTA), 150 µM, 37 °C, 24 h, TCA precipitation, RP-HPLC, mean of three independent experiments, read-out: Stability in human plasma, 24 h): 93.7%
remaining at 48 h, 150 µM ([2]; human plasma (K3-EDTA), 150 µM, 37 °C, 48 h, TCA precipitation, RP-HPLC, mean of three independent experiments, read-out: Stability in human plasma, 48 h): 92.4%
remaining at 4 h, 150 µM ([3]; simulated intestinal fluid (SIF), simulated intestinal fluid (Eur. Pharmacopoeia 7.0), 150 µM, 37 °C, 4 h, TCA precipitation, RP-HPLC, referenced to immediately stopped sample, mean of three independent experiments, read-out: Stability in SIF, 4 h): 96%
remaining at 8 h, 150 µM ([3]; simulated intestinal fluid (SIF), simulated intestinal fluid (Eur. Pharmacopoeia 7.0), 150 µM, 37 °C, 8 h, TCA precipitation, RP-HPLC, referenced to immediately stopped sample, mean of three independent experiments, read-out: Stability in SIF, 8 h): 87.2%
